Laboratory results reported in US9808003B2, “Herbicidally active 2-(substituted-phenyl)-cyclopentane-1,3-dione compounds and derivatives thereof” (Syngenta Limited, priority 2013, dated 2017).

Assays:
Assay type in all cases: in vivo
[1] = tested on: Alopecurus myosuroides (ALOMY); assay: Test 1B glasshouse assay, post-emergence herbicidal activity against grassy weeds; conditions: 14 DAA
Outline: (§1)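 Herbicide applied post-emergence at rates such as 60 g/ha (±50 g/ha cloquintocet-mexyl) or 90 and 120 g/ha (with safener), rates varying per compound. Plants kept at 22/16 °C, watered twice daily; percentage phytotoxicity scored visually after 14 days.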

Poa annua (POAAN) = assay: as above; conditions: 14 DAA
Outline: as §1

[2] = tested on: Lolium multiflorum (LOLMU); assay: as above; conditions: 14 DAA
Outline: as §1

Setaria viridis (SETVI) = assay: as above; conditions: 14 DAA
Outline: as §1

Avena fatua (AVEFA) = assay: as above; conditions: 14 DAA
Outline: as §1

[3] = tested on: Spring Barley “Harrington”; assay: Test 1B glasshouse assay, post-emergence herbicidal activity against cereal crops; conditions: 14 DAA
Outline: (§2)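 Visual percentage damage (100% = total, 0% = none) read 14 days after application, averaged over two replicates. Plants grown 14 days at 22/16 °C day/night before post-emergence spraying of unformulated compound (IF50/acetone, 0.5% v/v Adigor). Rates usually 60–120 g/ha; cloquintocet-mexyl 50 g/ha co-applied where stated.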

Winter Barley “Suzuka” = assay: as above; conditions: 14 DAA
Outline: as §2

Winter Wheat “Hereward” = assay: as above; conditions: 14 DAA
Outline: as §2

Spring Wheat “Teal” = assay: as above; conditions: 14 DAA
Outline: as §2

[4] = tested on: grassy monocotyledonous weeds; assay: Test 1B glasshouse assay, post-emergence, comparison of separated enantiomers, weeds overall; conditions: chiral-column-separated enantiomers, A98 vs A99 and A100 vs A101, Biological Example 1B
Experimental: Biological Example 1B tests the herbicidal activity of“technical” compounds (i.e. compounds not previously formulated before the test), as the herbicides under test.
An “instant formulation”, known as the “IF50”, containing 50 g/liter (i.e. 5% w/v) of the “technical” (i.e. unformulated) active ingredient (i.e. the herbicide under test), is prepared by dissolving the active ingredient in a mixture of organic solvents and emulsifier, details of which are provided in the Table below. […]
The test plants are then grown on under controlled conditions in the glasshouse (at 22/16° C., day/night; 16 hours light; 65% humidity) and are watered twice daily. 14 days after application of the test herbicide, the test is evaluated visually for percentage phytotoxicity to the plant (where 100%=total damage to plant; 0%=no damage to plant). […]
Herbicidal activity (phytotoxicity) is evaluated visually, and an assessed percentage phytotoxicity score is given for each herbicidal application on each plant species (with 100%=total damage to plant; 0%=no damage to plant; the assessment is recorded in increments of 1%). […]

[5] = 60 g/ha herbicide, 0 g/ha cloquintocet-mexyl, test result no. 1 (T1)
[6] = 60 g/ha herbicide, 50 g/ha cloquintocet-mexyl, test result no. 1 (T1)
[7] = 60 g/ha herbicide, 50 g/ha cloquintocet-mexyl, test result no. 2 (T2)
[8] = 90 g/ha herbicide, 50 g/ha cloquintocet-mexyl, test result no. 2 (T2)
[9] = 120 g/ha herbicide, 50 g/ha cloquintocet-mexyl, test result no. 2 (T2)

## Cc1cc(-n2cc(Cl)cn2)cc(C)c1C1C(=O)C[C@@H](CCNC(=O)c2ccccn2)C1=O (stereo partly drawn) [Compound A98, N-[2-[(1R)-3-[4-(4-chloropyrazol-1-yl)-2,6-dimethyl-phenyl]-2,4-dioxo-cyclopentyl]ethyl]pyridine-2-carboxamide]
[1]; [5]
  Post-emergence herbicidal activity, percentage phytotoxicity, ALOMY: 80 (T1) %
[1]; [6]
  Post-emergence herbicidal activity, percentage phytotoxicity, ALOMY: 80 (T1); %
[1]; [7]
  Post-emergence herbicidal activity, percentage phytotoxicity, ALOMY: 78 (T2) %
[1]; [8]
  Post-emergence herbicidal activity, percentage phytotoxicity, ALOMY: 88 (T2) %
[1]; [9]
  Post-emergence herbicidal activity, percentage phytotoxicity, ALOMY: 97 (T2) %
Poa annua (POAAN); [5]
  Post-emergence herbicidal activity, percentage phytotoxicity, POAAN: 78 (T1) %
Poa annua (POAAN); [6]
  Post-emergence herbicidal activity, percentage phytotoxicity, POAAN: 75 (T1); %
Poa annua (POAAN); [7]
  Post-emergence herbicidal activity, percentage phytotoxicity, POAAN: 75 (T2) %
Poa annua (POAAN); [8]
  Post-emergence herbicidal activity, percentage phytotoxicity, POAAN: 78 (T2) %
Poa annua (POAAN); [9]
  Post-emergence herbicidal activity, percentage phytotoxicity, POAAN: 83 (T2) %
[2]; [5]
  Post-emergence herbicidal activity, percentage phytotoxicity, LOLMU: 95 (T1) %
[2]; [6]
  Post-emergence herbicidal activity, percentage phytotoxicity, LOLMU: 95 (T1); %
[2]; [7]
  Post-emergence herbicidal activity, percentage phytotoxicity, LOLMU: 100 (T2) %
[2]; [8]
  Post-emergence herbicidal activity, percentage phytotoxicity, LOLMU: 100 (T2) %
[2]; [9]
  Post-emergence herbicidal activity, percentage phytotoxicity, LOLMU: 100 (T2) %
Setaria viridis (SETVI); [5]
  Post-emergence herbicidal activity, percentage phytotoxicity, SETVI: 94 (T1) %
Setaria viridis (SETVI); [6]
  Post-emergence herbicidal activity, percentage phytotoxicity, SETVI: 97 (T1); %
Setaria viridis (SETVI); [7]
  Post-emergence herbicidal activity, percentage phytotoxicity, SETVI: 100 (T2) %
Setaria viridis (SETVI); [8]
  Post-emergence herbicidal activity, percentage phytotoxicity, SETVI: 100 (T2) %
Setaria viridis (SETVI); [9]
  Post-emergence herbicidal activity, percentage phytotoxicity, SETVI: 100 (T2) %
Avena fatua (AVEFA); [5]
  Post-emergence herbicidal activity, percentage phytotoxicity, AVEFA: 100 (T1) %
Avena fatua (AVEFA); [6]
  Post-emergence herbicidal activity, percentage phytotoxicity, AVEFA: 100 (T1); %
Avena fatua (AVEFA); [7]
  Post-emergence herbicidal activity, percentage phytotoxicity, AVEFA: 100 (T2) %
Avena fatua (AVEFA); [8]
  Post-emergence herbicidal activity, percentage phytotoxicity, AVEFA: 100 (T2) %
Avena fatua (AVEFA); [9]
  Post-emergence herbicidal activity, percentage phytotoxicity, AVEFA: 100 (T2) %
[3]; [5]
  Post-emergence herbicidal activity against cereal crops, percentage phytotoxicity, Spring Barley “Harrington”: 33 (T1) %
[3]; [6]
  Post-emergence herbicidal activity against cereal crops, percentage phytotoxicity, Spring Barley “Harrington”: 10 (T1); %
[3]; [7]
  Post-emergence herbicidal activity against cereal crops, percentage phytotoxicity, Spring Barley “Harrington”: 4 (T2) %
[3]; [8]
  Post-emergence herbicidal activity against cereal crops, percentage phytotoxicity, Spring Barley “Harrington”: 5 (T2) %
[3]; [9]
  Post-emergence herbicidal activity against cereal crops, percentage phytotoxicity, Spring Barley “Harrington”: 15 (T2) %
Winter Barley “Suzuka”; [5]
  Post-emergence herbicidal activity against cereal crops, percentage phytotoxicity, Winter Barley “Suzuka”: 75 (T1) %
Winter Barley “Suzuka”; [6]
  Post-emergence herbicidal activity against cereal crops, percentage phytotoxicity, Winter Barley “Suzuka”: 13 (T1); %
Winter Barley “Suzuka”; [7]
  Post-emergence herbicidal activity against cereal crops, percentage phytotoxicity, Winter Barley “Suzuka”: 8 (T2) %
Winter Barley “Suzuka”; [8]
  Post-emergence herbicidal activity against cereal crops, percentage phytotoxicity, Winter Barley “Suzuka”: 9 (T2) %
Winter Barley “Suzuka”; [9]
  Post-emergence herbicidal activity against cereal crops, percentage phytotoxicity, Winter Barley “Suzuka”: 40 (T2) %
Winter Wheat “Hereward”; [5]
  Post-emergence herbicidal activity against cereal crops, percentage phytotoxicity, Winter Wheat “Hereward”: 35 (T1) %
Winter Wheat “Hereward”; [6]
  Post-emergence herbicidal activity against cereal crops, percentage phytotoxicity, Winter Wheat “Hereward”: 13 (T1); %
Winter Wheat “Hereward”; [7]
  Post-emergence herbicidal activity against cereal crops, percentage phytotoxicity, Winter Wheat “Hereward”: 9 (T2) %
Winter Wheat “Hereward”; [8]
  Post-emergence herbicidal activity against cereal crops, percentage phytotoxicity, Winter Wheat “Hereward”: 13 (T2) %
Winter Wheat “Hereward”; [9]
  Post-emergence herbicidal activity against cereal crops, percentage phytotoxicity, Winter Wheat “Hereward”: 23 (T2) %
Spring Wheat “Teal”; [5]
  Post-emergence herbicidal activity against cereal crops, percentage phytotoxicity, Spring Wheat “Teal”: 30 (T1) %
Spring Wheat “Teal”; [6]
  Post-emergence herbicidal activity against cereal crops, percentage phytotoxicity, Spring Wheat “Teal”: 10 (T1); %
Spring Wheat “Teal”; [7]
  Post-emergence herbicidal activity against cereal crops, percentage phytotoxicity, Spring Wheat “Teal”: 5 (T2) %
Spring Wheat “Teal”; [8]
  Post-emergence herbicidal activity against cereal crops, percentage phytotoxicity, Spring Wheat “Teal”: 13 (T2) %
Spring Wheat “Teal”; [9]
  Post-emergence herbicidal activity against cereal crops, percentage phytotoxicity, Spring Wheat “Teal”: 20 (T2) %
[4]
  herbicidal activity against grassy monocotyledonous weeds compared with the compound of opposite stereochemistry: more potent herbicidal activity
